Literature values in US20160317408A1, “KERATIN FIBRE DYEING METHOD” (ALFA PARF GROUP S.p.A., priority 2015, published 2016).

Legend:
[1] = value assigned from SCCS memorandum class; composition containing the dye
[2] = SCCS Opinion 1509/13, Memorandum on hair dye chemical sensitisation

| SMILES | individual sensitisation index value of the dye [1] | sensitising power classification [2] |
| --- | --- | --- |
| Nc1ccc(OCCO)c(N)c1 [2,4-diaminophenoxyethanol] | 2 | Moderate |
| Nc1ncccc1O [2-Amino-3-hydroxypyridine] | – | not classifiable |
| Cc1c(O)cccc1O [2-methylresorcinol] | 2 | Moderate |
| Oc1ccc(Cl)c(O)c1 [4-chlororesorcinol] | 2 | Moderate |
| Nc1ccc(N(CCO)CCO)cc1 [N,N-bis(2-hydroxyethyl)-p-phenylenediamine] | 1 | Strong |
| Nc1ccc(NCCO)cc1 [hydroxyethyl-p-phenylenediamine] | – | Strong |
| Nc1ccc(N)cc1 [p-phenylenediamine] | 0 | Extreme |
| Oc1cccc(O)c1 [resorcinol] | – | Strong |
